Experimental data as given in patent US20260166313A1, “WIRELESS PATCH SYSTEM FOR TRANSDERMAL, TRANSMUCOSAL AND DENTAL ELECTRICAL DRUG DELIVERY” (priority 2015, published 2026).

Assay: ACEK effect (DEP, ACEO, ACET) on drug particles over the inductively powered IDE, observed by light microscopy
Format: physicochemical
Details: for negative DEP (nDEP) detection / ACET effect detection: any frequency range; for negative DEP (nDEP) detection: DI water
Source text: In order to study the functionality of the patch in terms of a demodulation circuit and ACEK effect, a very simple set-up was constructed which is shown in FIG. 2C. The experimental set-up includes the dental patch, an optical microscope, AC waveform generators, a digital oscilloscope and some probe connectors. A microchamber was sealed over the IDE to hold the solution (FIG. 2C). […] The movement of particles was observed by an optical microscope NIKON ECLIPSE LV100 (Nikon Instruments, Inc., Melville, New York, United States of America) and the images from the microscope were acquired by a Roper Scientific (Tucson, Arizona, United States of America) digital camera and subsequently transferred to a computer. An AM signal with the amplitude of 10 V was applied to the primary coil. The AM signal applied to the primary coil was generated by two Agilent Arbitrary Waveform Generators (model 33220A). The carrier signal frequency was 8 MHz. The separation between primary and secondary coil is 10 mm. An Agilent Mixed Signal Oscilloscope (model MSO6012A) was used to record the demodulated signal. […] The frequency of the modulating signal was continuously swept in order to find an appropriate frequency at which ACEK effect occurs. […] The ACEK effect on Tetracycline, Acetaminophen, Benzocaine and Lidocaine was studied.

Row | Compound | negative DEP (nDEP) detection | ACET effect detection | frequency of maximum ACEO vortices (field 15 Vpp/mm) [KHz] | frequency of maximum ACEO vortices (field 10 Vpp/mm) [Hz]
1 | CC(=O)Nc1ccc(O)cc1 [acetaminophen] | No negative DEP (nDEP) was detected | – | – | –
2 | CCOC(=O)c1ccc(N)cc1 [benzocaine] | No nDEP or ACET effects were detected | No nDEP or ACET effects were detected | 1 | –
3 | CCN(CC)CC(=O)Nc1c(C)cccc1C [lidocaine] | No nDEP or ACET effects were detected | No nDEP or ACET effects were detected | – | 500
